Data set [1] concerns rat. The settings on record: Combined chronic toxicity/carcinogenicity, sprague dawley, Oral, Feed, dose end: 108 week, group: systemic.
Data set [2] has as its system mouse. To be noted: Carcinogenicity, cd1, Oral, Feed, dose end: 104 week, group: systemic.
Data set [3] relates to dog. To be noted: Chronic toxicity, beagle, Oral, Gavage/Intubation, dose end: 6 month, group: systemic.
Data set [4] relates to mouse. The settings on record: Combined chronic toxicity/carcinogenicity, b6c3f1, Oral, Water, dose end: 104 week, group: systemic.
Data set [5] concerns rat. The settings on record: Combined chronic toxicity/carcinogenicity; sprague dawley; Oral; Feed; dose end: 104 week; group: systemic; systemic / in life observation / body weight / body weight + systemic / in life observation / body weight / body weight gain + systemic / in….
In data set [6] the test system is rat. The settings on record: Multigenerational reproductive toxicity study, sprague dawley, Inhalation, Whole-Body, dose end: 2 generation.
The subject of data set [7] is rat. To be noted: Chronic toxicity, sprague dawley, Oral, Feed, dose end: 4 week, group: systemic.
Data set [8] deals with rat. To be noted: Prenatal developmental toxicity study; wistar; Inhalation; Whole-Body; dose end: 19 GD; group: maternal; systemic / pathology gross / kidney / [other].
The subject of data set [9] is rat. The settings on record: Prenatal developmental toxicity study, wistar, Oral, Gavage/Intubation, dose end: 15 GD.
Data set [10] relates to rat. The settings on record: Subchronic oral toxicity in rodents, wistar, Feed, dose end: 3 month, group: systemic.
In data set [11] the test system is mouse. To be noted: Carcinogenicity; other; Oral; Feed; dose end: 18 month; group: systemic; systemic / in life observation / body weight / body weight + systemic / in life observation / body weight / body weight gain.
For data set [12], the system named is rat. To be noted: Multigenerational reproductive toxicity study, wistar, Oral, Feed, dose end: 2 generation.
Data set [13] relates to mouse. The settings on record: Subchronic oral toxicity in rodents, b6c3f1, Feed, dose end: 90 day, group: systemic.
Data set [14] has as its system rat. To be noted: Chronic toxicity, wistar, Oral, Feed, dose end: 24 month, group: systemic.
Data set [15] has as its system dog. To be noted: Subchronic oral toxicity in nonrodent, beagle, Feed, dose end: 100 day, group: systemic.
Data set [16] has as its system rat. To be noted: Carcinogenicity, other, Oral, Feed, dose end: 24 month, group: systemic.
For data set [17], the system named is dog. To be noted: Chronic toxicity; beagle; Oral; Feed; dose end: 371 day; group: systemic; systemic / clinical chemistry / alanine aminotransferase (alt/sgpt) / alanine aminotransferase (alt/sgpt) + systemic / clinical chemistry / ….
For data set [18], the system named is dog. The settings on record: Chronic toxicity, beagle, Oral, Feed, dose end: 373 day, group: systemic.
The mark [19] stands for this setting: systemic / pathology microscopic / adrenal gland / hyperplasia + systemic / pathology microscopic / thyroid gland / hyperplasia.
[20] abbreviates: systemic / pathology microscopic / adrenal gland / hyperplasia + systemic / pathology microscopic / thyroid gland / hyperplasia + systemic….
Where [21] appears, read: systemic / pathology microscopic / liver / pigmentation.
[22] abbreviates: systemic / organ weight / thyroid gland / absolute.
The mark [23] stands for this setting: systemic / organ weight / thyroid gland / absolute + systemic / hematology / platelet / platelet + systemic / in life observation / body ….
[24] abbreviates: systemic / in life observation / body weight / body weight.
Setting [25] is: systemic / in life observation / body weight / body weight + systemic / in life observation / water consumption / water consumption.
Setting [26] is: group: offspring, systemic / in life observation / body weight / offspring (pup) weight.
Setting [27] is: group: parental, systemic / in life observation / body weight / body weight.
Setting [28] is: group: reproductive, reproductive / reproductive performance / pregnancy / pregnancy.
Where [29] appears, read: systemic / in life observation / body weight / body weight gain + systemic / in life observation / food consumption / food consumption.
Where [30] appears, read: group: developmental, developmental / developmental malformation / bone / unossified + developmental / developmental malformation / ureter / hydroureter + ….
The mark [31] stands for this setting: group: maternal, systemic / in life observation / food consumption / food consumption + reproductive / reproductive performance / resorptions / resorptions….
[32] abbreviates: systemic / clinical chemistry / albumin / albumin + systemic / clinical chemistry / creatinine / creatinine + systemic / clinical chemistry….
Where [33] appears, read: systemic / clinical chemistry / creatinine / creatinine.
The mark [34] stands for this setting: group: offspring, systemic / in life observation / body weight / offspring (pup) weight + systemic / in life observation / body weight / offspring (pup) ….
Where [35] appears, read: group: parental, systemic / in life observation / body weight / body weight + systemic / in life observation / body weight / body weight gain + systemic / in….
The mark [36] stands for this setting: systemic / pathology microscopic / heart / vacuolization + systemic / pathology microscopic / liver / hypertrophy.
The mark [37] stands for this setting: systemic / pathology microscopic / heart / vacuolization + systemic / pathology microscopic / liver / hypertrophy + systemic / clinical ….
[38] abbreviates: systemic / pathology microscopic / liver / adenoma/carcinoma combined + systemic / pathology microscopic / liver / carcinoma + systemic / in….
Setting [39] is: systemic / pathology gross / prostate / reduced size.
Setting [40] is: systemic / pathology microscopic / liver / polymorphism.
Setting [41] is: systemic / pathology gross / urinary bladder / foci.

As usually defined, the LOAEL is the lowest tested level that showed an adverse finding. A word on the NOAEL: it is the highest dose or exposure tested at which no adverse effect was seen.

Structures are written as SMILES.

For the compound `COC(=O)NS(=O)(=O)c1ccc(N)cc1` [Asulam], the LEL in data set [1] (setting [19]) stood at 180 mg/kg/day; in data set [2] (setting [21]), 74 mg/kg/day; in data set [3] (setting [22]), 300 mg/kg/day. Also, the lowest-observed-adverse-effect level (LOAEL) in data set [1] (setting [19]) was found to be 180 mg/kg/day; in data set [2] (systemic / in life observation / body weight / body weight gain + systemic / organ weight / spleen / nos), 8040 mg/kg/day; in [3] (setting [22]), 300 mg/kg/day. Besides, the NEL is 36 mg/kg/day in data set [1] (setting [20]), less than 74 mg/kg/day in data set [2] (setting [21]) and 60 mg/kg/day in data set [3] (setting [23]). The NOAEL in data set [1] (setting [20]) came to 36 mg/kg/day; in [2] (systemic / pathology microscopic / liver / pigmentation + systemic / in life observation / body weight / body weight gain + systemic / organ…), 730 mg/kg/day; in data set [3] (setting [23]), 60 mg/kg/day.

For `NCl` [Chloramine], in data set [4] (setting [24]), the LEL worked out at 6.67 mg/kg/day and the NEL was less than 6.67 mg/kg/day. In addition, in data set [4] (setting [25]), the LOAEL was greater than 26.7 mg/kg/day and the NOAEL was no less than 26.7 mg/kg/day.

For `CBr` [Methyl bromide], the LEL is 11.1 mg/kg/day in data set [5]; 30 ppm in [6] (setting [26]); 90 ppm in [6] (group: parental, systemic / in life observation / body weight / body weight + systemic / organ weight / liver / relative to body weight + systemic / organ …); 30 ppm in [6] (setting [28]); 0.825 mg/kg/day in data set [7] (systemic / in life observation / food consumption / food consumption); 70 ppm in data set [8]. Also, the LOAEL in data set [5] worked out at 11.1 mg/kg/day; in data set [6] (setting [26]), 30 ppm; in [6] (setting [27]), 90 ppm; in data set [6] (setting [28]) it was 30 ppm; in [7] (systemic / in life observation / body weight / body weight gain), 7.59 mg/kg/day; in data set [8] it was 70 ppm. The NEL in data set [5] was 2.2 mg/kg/day; in [6] (setting [26]), 3 ppm; in [6] (group: parental, systemic / organ weight / liver / relative to body weight) it was 30 ppm; in data set [6] (setting [28]), 3 ppm; in [7] (setting [29]) it was 0.082 mg/kg/day; in data set [8], 20 ppm. For the same compound, the NOAEL in [5] amounted to 2.2 mg/kg/day; in data set [6] (setting [26]), 3 ppm; in [6] (setting [27]), 30 ppm; in [6] (setting [28]), 3 ppm; in [7] (setting [29]), 0.825 mg/kg/day; in [8], 20 ppm.

In the case of `CC/C(=N\OC/C=C/Cl)C1=C(O)CC(C2CCOCC2)CC1=O` (stereo not drawn) [Tepraloxydim], the LEL in [9] (setting [30]) was found to be 120 mg/kg/day; in data set [9] (setting [31]) it was 360 mg/kg/day; in data set [10] (setting [33]) it was 22 mg/kg/day; in [11], 52 mg/kg/day; in data set [12] (setting [34]), 267 mg/kg/day; in [12] (setting [35]) it was 253 mg/kg/day. For the same compound, the LEL in [13] (setting [36]) worked out at 310 mg/kg/day; in [14] (systemic / pathology microscopic / liver / carcinoma) it was 29 mg/kg/day; in data set [15] (setting [39]), 12.9 mg/kg/day; in data set [16] (systemic / pathology microscopic / liver / eosinophilic focus + systemic / pathology microscopic / liver / infiltration cellular) it was 30 mg/kg/day; in [17], 248 mg/kg/day; in data set [18] (setting [41]), 3 mg/kg/day. In addition, the LOAEL in data set [9] (setting [30]) stood at 120 mg/kg/day; in [9] (group: maternal, systemic / in life observation / food consumption / food consumption) it was 360 mg/kg/day; in data set [10] (setting [32]), 223 mg/kg/day; in data set [11], 52 mg/kg/day; in data set [12] (setting [34]), 267 mg/kg/day; in [12] (setting [35]), 253 mg/kg/day. Moreover, the LOAEL came to 310 mg/kg/day in data set [13] (setting [36]); 154 mg/kg/day in [14] (setting [38]); 63.3 mg/kg/day in [15] (systemic / organ weight / liver / absolute + systemic / organ weight / liver / relative to body weight); 6 mg/kg/day in [16] (setting [40]); 248 mg/kg/day in [17]; 56 mg/kg/day in data set [18] (systemic / clinical chemistry / cholesterol / cholesterol + systemic / clinical chemistry / creatinine / creatinine + systemic / clinical …). Moreover, the NEL was 40 mg/kg/day in data set [9] (setting [30]); 120 mg/kg/day in data set [9] (setting [31]); less than 22 mg/kg/day in [10] (setting [33]); less than 52 mg/kg/day in data set [11]; 50.3 mg/kg/day in data set [12] (setting [34]); 50.9 mg/kg/day in data set [12] (setting [35]). In addition, the NEL in [13] (setting [37]) is 82 mg/kg/day; in data set [14] (setting [38]), 5 mg/kg/day; in [15] (setting [39]) it was less than 12.9 mg/kg/day; in [16] (systemic / pathology microscopic / liver / eosinophilic focus + systemic / pathology microscopic / liver / infiltration cellular + systemic…) it was 5 mg/kg/day; in data set [17] it was less than 248 mg/kg/day; in data set [18] (setting [41]), less than 3 mg/kg/day. Besides, the NOAEL in [9] (setting [30]) is 40 mg/kg/day; in data set [9] (setting [31]), 120 mg/kg/day; in [10] (setting [32]), 22 mg/kg/day; in data set [11] it was less than 52 mg/kg/day; in [12] (setting [34]) it was 50.3 mg/kg/day; in data set [12] (setting [35]), 50.9 mg/kg/day. The no-observed-adverse-effect level (NOAEL) in [13] (setting [37]) was 82 mg/kg/day; in data set [14] (setting [38]), 29 mg/kg/day; in data set [15] (systemic / organ weight / liver / absolute + systemic / organ weight / liver / relative to body weight + systemic / clinical chemistry / …), 12.9 mg/kg/day; in data set [16] (setting [40]), less than 6 mg/kg/day; in data set [17], less than 248 mg/kg/day; in [18] (systemic / pathology gross / urinary bladder / foci + systemic / clinical chemistry / cholesterol / cholesterol + systemic / clinical …), 11.5 mg/kg/day.
